Like-named read-outs stand apart in the source and are kept apart here.
What was measured:
FAK = target: T1, FAK (Homo sapiens, UniProt Q05397); test: Cell-based capture ELISA for inhibition of FAK autophosphorylation [pY397] in U87MG cells
T1 construct: endogenous in cells; host or cells: U87MG glioblastoma cells (ATCC HTB-14)
Method: Cell-Based Assays for Inhibition of FAK Autophosphorylation: MiaPaCa2 and U87MG
The ability of compounds to inhibit FAK autophosphorylation was determined in a cell-based capture ELISA assay using U87MG glioblastoma cells (ATCC, Cat # HTB-14) and the FAK [pY397]ELISA kit from Invitrogen (KHO0441). The assay determines the ability of compounds to block endogenous autophosphorylation of FAK stimulated by fibronectin. Cells plated on fibronectin coated 96-well plate were incubated with compounds at various concentrations in the complete growth medium for 2 h. Cell lysates were then prepared and FAK protein was captured onto a FAK antibody-coated 96-well ELISA plate. The phosphotyrosine content of FAK protein was then monitored by quantitation of degree of binding of an antibody that recognizes only the phosphorylated FAK at Y397 within the captured protein.
Reagents Provided in Biosource FAK [pY397]
Cultures of U87MG cells growing in MEM (Earles) containing non-essential amino acids, sodium pyruvate (1 mM), […] (1%) and 10% fetal bovine serum were detached by trypsin-EDTA and suspended in cell growth medium. Cells were then plated onto fibronectin (600 ng/well)-coated 96-well flat bottom plates at 1.7×10^4 cells per well in 60 uL cell growth medium and incubated overnight at 37° C. in a CO2 incubator.
Compound dilutions were prepared from 10 mM DMSO stocks by dilution in cell growth medium, the final concentration of DMSO in the assay being 0.6%. […] The cells were then incubated with compounds at 37° C. for 2 h. The medium was removed by aspiration and cells were lysed by addition of 20 uL of ice-cold cell lysis buffer per well. The plates were kept on ice for 20 min and 50 uL of standard diluent was added to each well. 50 uL of cell lysate from each well was transferred to respective wells in an assay plate and 50 uL of detection antibody was added to all wells except H1-H6 which were no antibody control wells. Capture assay plates were incubated overnight in a cold room.
Following incubation of the cell lysates and detection antibodies in the ELISA plate, the wells were washed 4 times with 120 uL of wash buffer (1×), then 100 uL of diluted HRP conjugated antibody (1:100 dil in diluent) was added to each well, and the plate was incubated at RT for 30 min. The wells were then washed for 4 times with 120 uL of wash buffer (1×) and 100 uL of chromogen was added to each well and incubated in the dark at RT for 5-10 min. 100 uL of stop solution was added to each well and the absorbance measured at 450 nm, 0.1 s.
Comparison of the assay signals obtained in the presence of compound with those of positive and negative controls (cells with no compound and no detection antibody being added), allows degree of inhibition of phospho-FAK [Y397] to be determined over a range of compound concentrations. […] The assay as described above was modified to determine the effect of inclusion of 50% (v/v) mouse or human plasma. In this assay, the compound plate was prepared as 2× concentration in 100 uL of 100% mouse or human plasma, and 60 uL of this was added to 60 uL of culture medium and incubated at 37° C. incubator for 2 h. The rest of the assay was carried out as described above.

[1] = target: T2, GST-tagged full-length FAK enzyme (PTK2) (Homo sapiens, UniProt Q05397); test: Biochemical Omnia Assay (FAK)
T2 construct: GST-tagged full-length FAK enzyme (PTK2, Invitrogen PV4085); GST; purchased Invitrogen PV4085
T2 sequence (Q05397 whole entry): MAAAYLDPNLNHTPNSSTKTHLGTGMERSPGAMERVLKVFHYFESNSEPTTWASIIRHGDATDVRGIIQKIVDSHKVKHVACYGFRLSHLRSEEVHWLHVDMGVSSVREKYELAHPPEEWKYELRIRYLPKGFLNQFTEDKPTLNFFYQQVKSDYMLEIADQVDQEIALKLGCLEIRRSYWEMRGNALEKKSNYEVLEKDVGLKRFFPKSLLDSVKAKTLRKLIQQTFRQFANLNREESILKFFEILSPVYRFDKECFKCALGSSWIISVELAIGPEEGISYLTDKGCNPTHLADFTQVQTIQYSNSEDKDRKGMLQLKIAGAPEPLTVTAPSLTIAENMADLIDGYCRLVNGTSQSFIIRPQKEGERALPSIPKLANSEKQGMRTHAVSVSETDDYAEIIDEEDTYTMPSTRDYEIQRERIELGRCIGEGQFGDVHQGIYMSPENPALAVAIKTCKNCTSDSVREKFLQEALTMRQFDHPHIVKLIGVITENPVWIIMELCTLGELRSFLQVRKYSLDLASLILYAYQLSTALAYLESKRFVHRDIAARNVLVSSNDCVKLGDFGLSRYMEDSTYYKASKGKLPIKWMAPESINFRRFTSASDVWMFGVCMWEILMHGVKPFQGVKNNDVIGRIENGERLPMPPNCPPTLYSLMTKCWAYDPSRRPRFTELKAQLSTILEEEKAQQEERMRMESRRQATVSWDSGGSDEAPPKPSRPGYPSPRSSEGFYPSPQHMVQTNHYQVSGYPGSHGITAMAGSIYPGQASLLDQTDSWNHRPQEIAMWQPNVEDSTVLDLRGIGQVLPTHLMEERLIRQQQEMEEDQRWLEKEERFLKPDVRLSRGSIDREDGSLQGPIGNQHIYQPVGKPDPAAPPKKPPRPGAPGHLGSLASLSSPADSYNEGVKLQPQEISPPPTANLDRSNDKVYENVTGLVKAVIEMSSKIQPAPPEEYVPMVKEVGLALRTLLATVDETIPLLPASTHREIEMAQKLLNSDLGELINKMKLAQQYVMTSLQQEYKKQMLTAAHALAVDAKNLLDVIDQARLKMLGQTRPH
Method: Biochemical Omnia Assay Protocol
The Omnia Assay (Invitrogen) has been optimized for GST-tagged full-length FAK enzyme (PTK2, Invitrogen PV4085).
All compound concentrations were assayed in duplicate. Initial compound dilutions were prepared at 100× concentration in 100% DMSO from a 10 mM stock solution. Compounds were further diluted 1:25 in assay buffer resulting in a 4× concentrated solution.
In running the assay, 5 μL of the above 4× concentrated compound solution (or 4% DMSO for positive controls) was added to the assay plate followed by 5 μL of a solution containing peptide (40 μM) and ATP (200 μM) in assay buffer. The reaction was initiated by the addition of 10 μL of FAK (50 nM) in assay buffer, or assay buffer alone for negative controls. The increase in fluorescence due to peptide phosphorylation was monitored continuously as a function of time using a Spectramax M5 plate reader (Molecular Devices) equipped with SoftMax Pro 5.2 software.
IC50 values were determined from the slopes of the linear progress curves by non-linear curve-fitting using GraphPad Prism 5 (GraphPad Software, Inc.).

[2] = 50% (v/v) human plasma, mean IC50, read-out: FAK Activity Mechanistic (U87MG) HP
[3] = no plasma present, mean IC50, read-out: FAK Activity Mechanistic (U87MG) NP
[4] = mean IC50, [ATP] = 50uM, read-out: FAK Activity Biochemical OMNIA, [ATP] = 50uM
[5] = 50% (v/v) mouse plasma, mean IC50, read-out: FAK Activity Mechanistic (U87MG) MP
[6] = FAK Activity Mechanistic (U87MG) MP, 50% (v/v) mouse plasma, mean IC50

T1 sequence (Q05397 whole entry): as above

| Compound | IC50 (FAK; [2]) | IC50 (FAK; [3]) | IC50 [1] | IC50 [1, 4] | IC50 (FAK; [5]) | IC50 (FAK; [6]) |
| --- | --- | --- | --- | --- | --- | --- |
| CCOP1(=O)Cc2ccc(c(OC)c2)Nc2ncc(C(F)(F)F)c(n2)Nc2ccc(nc2C(=O)NC)-c2cnn(c2)CCCCO1 (racemic) [Example 15] | < 0.4 µM | < 0.4 µM | < 0.4 µM |  |  |  |
| CCOP1(=O)Cc2ccc(c(Br)c2)Nc2ncc(C(F)(F)F)c(n2)Nc2ccc(nc2C(=O)NC)-c2cnn(c2)CCCO1 (racemic) [Example 32] | < 0.4 µM | < 0.4 µM |  | < 0.4 µM |  |  |
| CCOP1(=O)Cc2ccc(c(OC)c2)Nc2ncc(C(F)(F)F)c(n2)Nc2ccc(nc2C(=O)NC)-c2cnn(c2)CC2(COC2)CO1 (racemic) [Example 44] | < 0.4 µM | < 0.4 µM | < 0.4 µM |  |  |  |
| CCOP1(=O)Cc2ccc(c(OC)c2)Nc2ncc(C(F)(F)F)c(n2)Nc2ccc(nc2C(=O)NC)-c2cnn(c2)CC(C)CO1 (mixture of isomers) [Example 19] | < 0.4 µM | < 0.4 µM |  | < 0.4 µM |  |  |
| CCOP1(=O)Cc2ccc(c(OC)c2)Nc2cc(c(C(F)(F)F)cn2)Nc2ccc(nc2C(=O)NC)-c2cnn(c2)CCCO1 (racemic) [Example 36] | < 0.4 µM | < 0.4 µM | < 0.4 µM |  | 0.4 to 4 µM |  |
| CCOP1(=O)Cc2ccc(c(Cl)c2)Nc2ncc(C(F)(F)F)c(n2)Nc2ccc(nc2C(=O)NC)-c2cnn(c2)CC2(COC2)CO1 (single isomer, unassigned) [Example 58A] | 0.4 to 4 µM | < 0.4 µM | < 0.4 µM |  |  |  |
| CCOP1(=O)Cc2ccc(c(OC)c2)Nc2ncc(C(F)(F)F)c(n2)Nc2ccc(cc2C(=O)N(C)C)-c2cnn(c2)CCCO1 (racemic) [Example 12] | 0.4 to 4 µM | < 0.4 µM |  | < 0.4 µM |  |  |
| CCOP1(=O)Cc2cc(OC)c(cc2Cl)Nc2ncc(C(F)(F)F)c(n2)Nc2ccc(nc2C(=O)NC)-c2cnn(c2)CCCO1 (racemic) [Example 56] | > 4 µM | < 0.4 µM | < 0.4 µM |  | 0.4 to 4 µM |  |
| CCOP1(=O)Cc2ccc(c(OC)c2)Nc2ncc(C(F)(F)F)c(n2)Nc2ccc(nc2C(=O)NC)-c2cn(nc2OC)CCCO1 (single isomer, unassigned) [Example 48A] | > 4 µM | < 0.4 µM | < 0.4 µM |  | 0.4 to 4 µM |  |
| CCOP1(=O)Cc2ccc(c(OC)c2)Nc2ncc(C(F)(F)F)c(n2)Nc2ccc(nc2C(=O)NC)-c2cn(nc2C)CC2(COC2)CO1 (single isomer, unassigned) [Example 60A] | < 0.4 µM | < 0.4 µM | < 0.4 µM |  |  |  |
| CNC(=O)c1nc2ccc1Nc1nc(ncc1C(F)(F)F)Nc1ccc(cc1OC)CP(=O)(O)OCCCn1cc-2cn1 [Example 65, 10-hydroxy-14-methoxy-N-methyl-20-(trifluoromethyl)-9-oxa-4,5,16,18,22,25,28-heptaaza-10-phosphapentacyclo[21.2.2.2^12,15.1^2,5.1^17,21]hentriaconta-1(25),2(31),3,12,14,17(28),18,20,23,26,29-undecaene-24-carboxamide 10-oxide] | > 4 µM | > 4 µM |  | < 0.4 µM | > 4 µM |  |
| CNC(=O)c1nc2ccc1Nc1nc(ncc1C(F)(F)F)Nc1ccc(cc1OC)CP(=O)(C(C)C)OCCCn1cc-2cn1 (racemic) [Example 68] | < 0.4 µM | < 0.4 µM |  | < 0.4 µM | < 0.4 µM |  |
| CCOP1(=O)Cc2ccc(c(OC)c2)Nc2ncc(C(F)(F)F)c(n2)Nc2ccc(nc2C(=O)NC)-c2cc(C(=O)N3CC(C)(O)C3)n(c2)CCCO1 (racemic) [Example 40] |  | < 0.4 µM | < 0.4 µM |  |  | 0.4 to 4 µM |
| CCOP1(=O)Cc2ccc(cc2)Nc2ncc(C(F)(F)F)c(n2)Nc2ccc(cc2C(=O)NC)-c2cnn(c2)CCCO1 (racemic) [Example 8] | < 0.4 µM | < 0.4 µM | < 0.4 µM |  |  |  |
| CCOP1(=O)Cc2ccc(c(OC)c2)Nc2ncc(C(F)(F)F)c(n2)Nc2ccc(nc2C(=O)NC)-c2cnn(c2)CC(F)(F)CO1 (single isomer, unassigned) [Example 59B] | 0.4 to 4 µM | 0.4 to 4 µM | < 0.4 µM |  |  |  |
| CCOP1(=O)Cc2ccc(c(OC)c2)Nc2ncc(C(F)(F)F)c(n2)Nc2ccc(nc2C(=O)NC)-c2cc(C(=O)NC)n(c2)CCCO1 (racemic) [Example 42] | < 0.4 µM | < 0.4 µM | < 0.4 µM |  |  | 0.4 to 4 µM |
| CNC(=O)c1nc2ccc1Nc1nc(ncc1C(F)(F)F)Nc1ccc(cc1OC)CP(C)(=O)OCCCn1cc-2cn1 (single isomer, unassigned) [Example 61A] | < 0.4 µM | < 0.4 µM |  | < 0.4 µM | < 0.4 µM |  |
| CCOP1(=O)Cc2ccc(c(OC)c2)Nc2ncc(C(F)(F)F)c(n2)Nc2ccc(c(OC)c2C(=O)NC)-c2cnn(c2)CCCO1 (racemic) [Example 30] |  | < 0.4 µM | < 0.4 µM |  | 0.4 to 4 µM |  |
| CCOP1(=O)Cc2ccc(c(OC)c2)Nc2ncc(C(F)(F)F)c(n2)Nc2ccc(nc2C(=O)NC)-c2cnn(c2C#N)CCCO1 (racemic) [Example 53] |  | > 4 µM |  | 0.4 to 4 µM |  |  |
| CCNC(=O)c1cc2ccc1Nc1nc(ncc1C(F)(F)F)Nc1ccc(cc1OC)CP(=O)(OCC)OCCCn1cc-2cn1 (racemic) [Example 9] | < 0.4 µM | < 0.4 µM | < 0.4 µM |  | 0.4 to 4 µM |  |
| CCOP1(=O)Cc2ccc(c(OC)c2)Nc2ncc(C(F)(F)F)c(n2)Nc2ccc(nc2C(=O)NC)-c2cn(nc2C)CCCO1 (single isomer, unassigned) [Example 34A] | 0.4 to 4 µM | < 0.4 µM |  | < 0.4 µM |  |  |
| CCOP1(=O)Cc2ccc(c(OC)c2)Nc2ncc(C(F)(F)F)c(n2)Nc2ccc(nc2C(=O)NC)-c2cn(nc2Cl)CCCO1 (single isomer, unassigned) [Example 49A] | > 4 µM | < 0.4 µM |  | < 0.4 µM | 0.4 to 4 µM |  |
| CNC(=O)c1nc2ccc1Nc1nc(ncc1C(F)(F)F)Nc1ccc(cc1OC)CP(=O)(C(C)C)OCCCn1cc-2cn1 (single isomer, unassigned) [Example 68B] | < 0.4 µM | < 0.4 µM |  | < 0.4 µM | < 0.4 µM |  |
| CCOP1(=O)Cc2ccc(c(OC)c2)Nc2ncc(C(F)(F)F)c(n2)Nc2ccc(nc2C(=O)NC)-c2cn(nc2C)CCCO1 (racemic) [Example 34] | < 0.4 µM | < 0.4 µM |  | < 0.4 µM |  |  |
| CCOP1(=O)Cc2ccc(c(C)c2)Nc2ncc(C(F)(F)F)c(n2)Nc2ccc(nc2C(=O)NC)-c2cnn(c2)CCCO1 (racemic) [Example 33] | < 0.4 µM | < 0.4 µM | < 0.4 µM |  |  |  |
| CCOP1(=O)Cc2cc(OC)c(cc2Cl)Nc2ncc(C(F)(F)F)c(n2)Nc2ccc(nc2C(=O)NC)-c2cnn(c2)CC2(COC2)CO1 (racemic) [Example 57] | 0.4 to 4 µM | < 0.4 µM | < 0.4 µM |  |  |  |

Source: patent US9133224B2, “Macrocyclic kinase inhibitors” (OSI Pharmaceuticals, LLC, priority 2010, dated 2015)
